Data taken from patent publication US12570956B2, “Efficient derivation of stable pluripotent bovine embryonic stem cells” (The Regents of the University of California, priority 2018, dated 2026).
Entries after “also recorded” stand apart in the source; their conditions may differ.

Assays:
[1] = test system: bovine blastocyst; conditions: added during in vitro pre-implantation development; cited from earlier work
[2] = test system: bovine embryonic stem cells; assay: Immunostaining of pluripotency markers in bESCs grown with or without IWR1; type: cell-based; conditions: withdrawal of IWR1 from the culture media; four passages
Protocol: FIG. 3: Inhibition of the canonical Wnt-signaling pathway is a requirement for self-renewal of pluripotent CTFR-bESCs. Immunostaining of the core pluripotency markers POU5F1 and SOX2 in bovine embryonic stem cells grown in medium supplemented with or devoid of IWR1 (+IWR1 and −IWR1, respectively). Cells were grown for four passages in the two conditions before immunofluorescence analysis. Scale bar 100 μm.
(§1) Individual whole blastocysts or isolated ICMs were placed in separate wells of a 12-well dish seeded with a monolayer of gamma-irradiated mouse embryonic fibroblasts (MEF) and cultured in CTFR medium: a custom mTeSR-like basal medium (completely devoid of growth factors FGF2 and TGFβ) containing low fatty acid BSA (MP Biomedicals NZ), similar to basal medium in the published recipe(45) supplemented with 20 ng/ml human FGF2 and 2.5 μM IWR1 (CTFR), and incubated at 37° C. and 5% CO2.
Once established, CTFR-bESC lines were grown at 37° C. and 5% CO2 on wells containing MEF and passaged every 4-5 days at a 1:10 split ratio. To increase cell survival, optionally, ROCK inhibitor (Y-27632, 10 μM) was added to the wells 1 h prior to passage and was also added to the newly prepared wells containing MEF and fresh culture media medium during 24 hrs. Media change was done daily between passages. ROCK inhibitor is dispensable for routine maintenance and passaging of CTFR-bESCs. […]

[3] = test system: bovine blastocysts; assay: Derivation of CTFR-bESC lines from plated blastocysts/ICMs; type: cell-based; conditions: IWR1 not present in the culture medium
Protocol: CTFR-bESCs derivation efficiency was measured as the percentage of embryos successfully establishing a CTFR-bESC line at passage 3 over the total number of embryos seeded. To optimize the CTFR-bESCs derivation efficiency, Applicants evaluated three different plating methods: whole blastocyst, mechanical isolation of the ICM by microdissection, and isolation of the ICM by immunosurgery. […] The initial outgrowths from the three methods were slightly different. The immunosurgery-derived outgrowths were smaller and more homogeneous in cell morphology than those from the other two methods.
as §1, with “recipe([…]),” for “recipe(45) supplemented with 20 ng/ml human FGF2 and 2.5 μM IWR1 (CTFR),”
Thereafter, the media was changed daily. Outgrowths (after 6-7 days in culture) were dissociated and passaged using TrypLE (Gibco, 12563011) and re-seeded in the presence of Rho Kinase (ROCK) inhibitor (Y-27632, 10 μM) onto newly prepared wells containing MEF and fresh medium (FIG. 1).

[4] = test system: CTFR-bESCs; assay: Routine maintenance and passaging of CTFR-bESCs; type: cell-based, bovine; conditions: Y-27632, 10 μM
Protocol: Once established, CTFR-bESC lines were grown at 37° C. and 5% CO2 on wells containing MEF and passaged every 4-5 days at a 1:10 split ratio. To increase cell survival, optionally, ROCK inhibitor (Y-27632, 10 μM) was added to the wells 1 h prior to passage and was also added to the newly prepared wells containing MEF and fresh culture media medium during 24 hrs. Media change was done daily between passages. ROCK inhibitor is dispensable for routine maintenance and passaging of CTFR-bESCs.

[5] = test system: CTFR-bESCs; assay: Feeder-free culture of CTFR-bESCs on Matrigel or Vitronectin; type: cell-based, bovine; conditions: medium supplemented with Activin-A (10 ng/mL), four passages
Protocol: FIG. 9. CTFR-bESCs can be cultured in feeder-free conditions. Brightfield images and immunostaining for pluripotency markers OCT4 and SOX2 of CTFR-bESCs cultured for four passages on mouse embryonic fibroblast (MEF) feeder (Control) or different extracellular matrices (Matrigel or Vitronectin) conditions, with or without the supplementation of Activin-A (10 ng/mL). Control: inactivated MEFs.
Culturing CTFR-bESCs in absence of feeder cells lead to cellular differentiation after a few passages.

[6] = test system: bovine embryos; conditions: in vitro treatment from day 5 to day 7 after fertilization; cited from earlier work

COc1cccc(-c2cc(NCc3ccc4c(c3)OCO4)nc(N)n2)c1 [AMBMP, 2-amino-4-(3,4-(methylenedioxy)benzylamino)-6-(3-methoxyphenyl)pyrimidine]
bovine blastocyst development [1]: detrimental effects
total number of cells in the ICM [1]: reduces

O=C(Nc1cccc2cccnc12)c1ccc(N2C(=O)[C@@H]3[C@H](C2=O)[C@@H]2C=C[C@H]3C2)cc1 [IWR1]
pluripotency marker expression (POU5F1, SOX2) [2]: loss of pluripotency marker expression
establishment of bESC line [3]: no bESC lines could be established

C[C@@H](N)[C@H]1CC[C@H](C(=O)Nc2ccncc2)CC1 [Y-27632]
need for ROCK inhibitor in maintenance and passaging [4]: dispensable

Activin-A: culture supplement used with an organic matrix to replace feeder cells
propagation and pluripotency marker expression (OCT4, SOX2) without feeder cells [5]: allowed the propagation of the cells for multiple passages while maintaining expression of pluripotency markers; also recorded: maintained expression of pluripotency markers and a morphology consistent with CTFR-bESC

B1: DKK1: protein inhibitor of the canonical WNT-signaling pathway, naturally secreted by the female reproductive tract (protein, UniProt O94907 32-266, looked up)
Dickkopf-related protein 1: TLNSVLNSNAIKNLPPPLGGAAGHPGSAVSAAPGILYPGGNKYQTIDNYQPYPCAEDEECGTDEYCASPTRGGDAGVQICLACRKRRKRCMRHAMCCPGNYCKNGICVSSDQNHFRGEIEETITESFGNDHSTLDGYSRRTTLSSKMYHTKGQEGSVCLRSSDCASGLCCARHFWSKICKPVLKEGQVCTKHRRKGSHGLEIFQRCYCGEGLSCRIQKDHHQASNSSRLHTCQRH
embryo survival after transfer to recipients [6]: significantly improve
